Measured values as given in US20220227773A1, “FUSED RING COMPOUND, PREPARATION METHOD THEREFOR AND USE THEREOF” (SHANGHAI INSTITUTE OF MATERIA MEDICA, CHINESE ACADEMY OF …, priority 2019, published 2022).
Structures can show the parent of a compound that is named as a salt. Where two headings read alike, the source gives them in different places.

Assays:
[1] = target: T1, human recombinant 5-HT3 receptor (Homo sapiens, UniProt P46098); test: 5-HT3 receptor affinity assay (3H-BRL 43694 radioligand binding); details: read-out: inhibition (%) at 1 μM
T1 construct: expressed in transfected cells; host or cells: HEK293 (membrane preparation)
T1 sequence (P46098 24-478): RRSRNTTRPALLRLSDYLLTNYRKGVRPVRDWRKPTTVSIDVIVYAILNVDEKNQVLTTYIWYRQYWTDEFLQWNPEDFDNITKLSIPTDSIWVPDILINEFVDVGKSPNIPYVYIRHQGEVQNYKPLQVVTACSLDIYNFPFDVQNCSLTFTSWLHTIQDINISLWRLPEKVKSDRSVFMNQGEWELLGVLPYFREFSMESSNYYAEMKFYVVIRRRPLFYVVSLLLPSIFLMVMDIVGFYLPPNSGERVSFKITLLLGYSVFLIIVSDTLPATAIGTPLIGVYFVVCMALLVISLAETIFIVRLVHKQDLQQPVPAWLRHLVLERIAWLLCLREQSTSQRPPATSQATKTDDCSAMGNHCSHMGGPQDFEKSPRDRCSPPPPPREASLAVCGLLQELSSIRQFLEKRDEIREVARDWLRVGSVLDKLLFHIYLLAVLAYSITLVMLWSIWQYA

[2] = target: T2, hSERT (5-HTT) in HEK293-hSERT cells (Homo sapiens, UniProt P31645); test: 5-HTT reuptake activity assay (fluorescence neurotransmitter transporter uptake kit); format: cell-based; details: serotonin reuptake inhibition
T2 construct: expressed in transfected cells; host or cells: HEK293

[3] = tested on: mice; test: Tail suspension test (TST) in mice; format: in vivo; details: Mus musculus, ip
Description: (§1) 3. In Vivo Drug Efficacy Test (Mouse Forced Swimming Model)
(§2) Experimental animals: C57BL/6 mice (Shanghai Xipuer-Bikai Experimental Animal Co., Ltd.), male, 6 weeks old, weighing 15-20 g. ICR mice (Shanghai Xipuer-Bikai Experimental Animal Co., Ltd.), male, 6 weeks old, weighing 20-25 g. All the ordered mice were fed in a standard environment for 2-3 weeks before test.
Tail suspension test (TST): the mice were tail fixed to the apparatus with a medical tape for 6 min, the whole process was recorded by the camera. When analyzing the data, only the immobility time of the mice in the last 4 min was counted.
(§3) The results were analyzed by one-way analysis of variance. […] FST: Forced swimming test; TST: Tail suspension test.

[4] = tested on: mice; test: Forced swimming test (FST) in mice; format: in vivo; details: Mus musculus
Description: as §1, §2
Forced Swimming Test (FST): in the forced swimming apparatus, the water level is 45 cm, and the water temperature is 25° C. Before the experiment, the mice were placed in the experimental room for 1 h for adapting to the environment. At the beginning of the experiment, the mice were placed in the apparatus for 6min, and the whole process was recorded with a camera. When analyzing the data, only the immobility time of the mice in the last 4 min was counted, and the result was expressed by mean±SD.
as §3

[5] = TST, dose significantly reducing immobility time of mice, read-out: Effective dose
[6] = read-out: Effective dose (mg/kg)
[7] = po, read-out: Effective dose (mg/kg)
[8] = 1 μM compound, 0.5 nM 3H-BRL 43694, HEK293 membranes
[9] = ip, read-out: Effective dose (mg/kg)

T2 sequence (P31645 whole entry): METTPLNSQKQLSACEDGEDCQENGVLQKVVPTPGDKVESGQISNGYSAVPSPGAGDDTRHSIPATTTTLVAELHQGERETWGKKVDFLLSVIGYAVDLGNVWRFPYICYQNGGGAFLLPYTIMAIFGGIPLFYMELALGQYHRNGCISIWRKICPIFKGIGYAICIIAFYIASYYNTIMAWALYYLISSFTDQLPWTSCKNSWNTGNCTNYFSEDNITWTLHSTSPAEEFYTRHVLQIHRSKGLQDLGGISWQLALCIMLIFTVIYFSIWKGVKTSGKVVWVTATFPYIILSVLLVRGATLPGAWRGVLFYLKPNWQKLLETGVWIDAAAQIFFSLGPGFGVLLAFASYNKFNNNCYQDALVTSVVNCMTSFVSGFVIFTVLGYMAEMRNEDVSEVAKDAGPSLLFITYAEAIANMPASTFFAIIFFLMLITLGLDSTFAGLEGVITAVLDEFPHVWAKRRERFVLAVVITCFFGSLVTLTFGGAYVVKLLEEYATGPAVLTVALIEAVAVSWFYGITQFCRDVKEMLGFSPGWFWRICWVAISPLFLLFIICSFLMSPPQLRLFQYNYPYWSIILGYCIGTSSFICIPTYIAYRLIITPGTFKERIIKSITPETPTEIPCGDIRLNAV

SMILES | inhibition at 1 µM [1] [%] | IC50 [2] [nM] | minimal effective dose [3, 5] [mg/kg] | minimal effective dose [3, 6] [mg/kg] | minimal effective dose [4, 7] [mg/kg] | inhibition at 1 µM [1, 8] [%] | minimal effective dose [4, 9] [mg/kg] | minimal effective dose ([4]; po, FST, dose significantly reducing immobility time of mice, read-out: Effective dose) [mg/kg]
O=C(O)/C=C\C(=O)O.c1cc(N2CCC3CNCC3CC2)c2sccc2c1 (stereo not drawn) [Example 36, 6-(Benzo[b]thiophen-7-yl)decahydropyrrolo[3,4-d]azepine maleate] | 89 | < 10 | 10 | – | – | – | – | –
O=C(O)/C=C\C(=O)O.c1ccc2sc(N3CC4CNCC4C3)cc2c1 (stereo not drawn) [Example 22, 2-(Benzo[b]thiophen-2-yl)octahydropyrrolo[3,4-c]pyrrole maleate] | – | < 50 | – | 10 | – | – | – | –
O=C(O)/C=C\C(=O)O.c1cc(N2CC3CCNCCC3C2)c2ccsc2c1 (stereo not drawn) [Example 41, 2-(Benzo[b]thiophen-4-yl)decahydropyrrolo[3,4-d]azepine maleate] | 86 | < 10 | 10 | – | – | – | – | –
CN1CC2CN(c3ccc4ccccc4c3)CC2C1 (stereo not drawn) [Example 2, 2-methyl-5-(naphthalen-2-yl)octahydropyrrolo[3,4-c]pyrrole] | – | < 10 | – | – | 5 | 97 | – | –
Clc1ccc(N2CC3CNCC3C2)cc1Cl (stereo not drawn) [Example 16, 2-(3,4-dichlorophenyl)octahydropyrrolo[3,4-c]pyrrole] | – | < 10 | – | – | – | 96 | 3 | –
Clc1ccc(N2CCC3CNCC3CC2)cc1Cl (stereo not drawn) [Example 35, 6-(3,4-dichlorophenyl)decahydropyrrolo[3,4-d]azepine] | – | < 10 | – | – | 20 | 98 | – | –
O=C(O)/C=C\C(=O)O.c1ccc2cc(N3CCC4CNCC4CC3)ccc2c1 (stereo not drawn) [Example 39, 6-(naphthalen-2-yl)decahydropyrrolo[3,4-d]azepine maleate] | 92 | < 10 | 10 | – | – | – | – | –
c1cc2cc(N3CCC4CNCC4CC3)ccc2s1 (stereo not drawn) [Example 7, 6-(Benzothiophen-5-yl)decahydropyrrolo[3,4-d]azepine maleate] | 101 | < 10 | 10 | – | – | – | – | –
O=C(O)/C=C\C(=O)O.c1cc2cc(N3CC4CNCC4C3)ccc2s1 (stereo not drawn) [Example 14, 2-(Benzo[b]thiophen-5-yl)octahydropyrrolo[3,4-c]pyrrole maleate] | 99 | < 10 | – | – | – | – | 3 | –
Cl.c1ccc2cc(C3CC4CNCC4C3)ccc2c1 (stereo not drawn) [Example 55, 5-(naphthalen-2-yl)octahydrocyclopenta[c]pyrrole hydrochloride] | – | < 10 | – | – | 5 | 75 | – | –
O=C(O)/C=C\C(=O)O.c1cc(N2CC3CNCC3C2)c2sccc2c1 (stereo not drawn) [Example 10, 2-(Benzo[b]thiophen-7-yl)octahydropyrrolo[3,4-c]pyrrole maleate] | 86 | < 50 | – | – | – | – | 10 | –
Fc1c(N2CC3CNCC3C2)ccc2ccccc12.O=C(O)/C=C\C(=O)O (stereo not drawn) [Example 31, 2-(1-fluoronaphthalen-2-yl)octahydropyrrolo[3,4-c]pyrrole maleate] | 101 | < 10 | – | – | 20 | – | – | –
c1ccc2cc(N3CC4CNCC4C3)ccc2c1 (stereo not drawn) [Example 1, 2-(naphthalen-2-yl)octahydropyrrolo[3,4-c]pyrrole] | 106 | < 10 | – | – | 5 | – | – | –
O=C(O)/C=C\C(=O)O.c1cc(N2CC3CNCC3C2)c2ccsc2c1 (stereo not drawn) [Example 12, 2-(Benzo[b]thiophen-4-yl)octahydropyrrolo[3,4-c]pyrrole maleate] | 101 | < 50 | – | – | – | – | 3 | –
CN1CC2CN(c3cccc(Cl)c3Cl)CC2C1.O=C(O)C(=O)O (stereo not drawn) [Example 28, 2-(2,3-dichlorophenyl)-5-methyloctahydropyrrolo[3,4-c]pyrrole oxalate] | 82 | < 200 | – | 10 | – | – | – | –
CN1CC2CN(c3ccc(Cl)c(Cl)c3)CC2C1 (stereo not drawn) [Example 17, 2-(3,4-dichlorophenyl)-5-methyloctahydropyrrolo[3,4-c]pyrrole] | – | < 10 | – | – | 5 | 93 | – | –
CCN1CC2CN(c3ccc4ccccc4c3)CC2C1.O=C(O)C(=O)O (stereo not drawn) [Example 25, 2-ethyl-5-(naphthalen-2-yl)octahydropyrrolo[3,4-c]pyrrole oxalate] | – | – | 10 | – | – | – | – | –
CN1CC2CN(c3ccc4sccc4c3)CC2C1.Cl (stereo not drawn) [Example 15, 2-(Benzo[b]thiophen-5-yl)-5-methyloctahydropyrrolo[3,4-c]pyrrole hydrochloride] | – | < 10 | – | – | 2.5 | 70 | – | –
O=C(O)/C=C\C(=O)O.c1cc(N2CCC3CNCC3CC2)c2ccsc2c1 (stereo not drawn) [Example 38, 6-(Benzo[b]thiophen-4-yl)decahydropyrrolo[3,4-d]azepine maleate] | 103 | < 10 | 10 | – | – | – | – | –
CN1CC2CN(c3ccc4ccccc4c3F)CC2C1.O=C(O)/C=C\C(=O)O (stereo not drawn) [Example 32, 2-(1-fluoronaphthalen-2-yl)-5-methyloctahydropyrrolo[3,4-c]pyrrole maleate] | 103 | < 10 | – | – | – | – | – | 20
Clc1cccc(N2CCC3CNCC3CC2)c1Cl.O=C(O)/C=C\C(=O)O (stereo not drawn) [Example 37, 6-(2,3-dichlorophenyl)decahydropyrrolo[3,4-d]azepine maleate] | 80 | < 10 | – | – | – | – | 10 | –
